Results on two compounds are retold here after paper PMC9558053, “Development of a novel high-throughput screen for the identification of new inhibitors of protein S-acylation” (The Journal of Biological Chemistry, 2022).

SMILES strings stand for the structures.

The target of this experiment is T1, human zDHHC2 (Homo sapiens, UniProt Q9UIJ5).
T1 construct: expressed in transfected cells; host or cells: HEK293T
T1 sequence (Q9UIJ5 1-367): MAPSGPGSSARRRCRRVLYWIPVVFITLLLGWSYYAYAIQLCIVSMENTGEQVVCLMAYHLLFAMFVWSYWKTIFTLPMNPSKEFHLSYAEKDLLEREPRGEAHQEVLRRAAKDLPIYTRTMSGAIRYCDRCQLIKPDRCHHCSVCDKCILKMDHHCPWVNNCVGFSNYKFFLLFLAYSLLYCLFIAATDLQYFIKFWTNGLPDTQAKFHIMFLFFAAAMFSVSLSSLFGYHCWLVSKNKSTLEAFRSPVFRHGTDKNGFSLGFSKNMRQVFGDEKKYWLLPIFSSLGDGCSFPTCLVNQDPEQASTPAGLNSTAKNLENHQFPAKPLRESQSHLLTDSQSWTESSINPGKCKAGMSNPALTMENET
The experiment can be described thus: GFP-SNAP25b S-acylation in HEK293T cells co-expressing zDHHC2, copper-catalyzed click chemistry, Western blot. It counts as cell-based. The following applies: for inhibition at 25 µM: HEK-293T, compound 25 μM, 4 h preincubation + 4 h labeling, read-out: SNAP25 S-acylation inhibition (%), zDHHC2; for inhibition at 25 µM / zDHHC2-mediated substrate (SNAP25) S-acylation Hill slope / IC50: in cellulo HEK293T; for zDHHC2-mediated substrate (SNAP25) S-acylation Hill slope / IC50: Western blot; for IC50: read-out: zDHHC2-mediated substrate (SNAP25) S-acylation IC50 (95 CI); for GFP-SNAP25 S-acylation in cell-based assays, newly synthesized compounds: resynthesized (UoS) material vs original hits, Supplemental Fig. 2 (zD2, zD3, zD7, zD15, zD17). As for the experimental part:
The inhibitory activity of TTZ-1 and TTZ-2 on cells expressing SNAP25 and zDHHC2 was also examined. Human embryonic kidney 293T (HEK293T) cells were transfected with plasmids encoding GFP-tagged SNAP25b and HA-tagged zDHHC2. Cells were then preincubated for 4 h with either dimethyl sulfoxide (DMSO) as a vehicle control or increasing concentrations of TTZ-1/TTZ-2 (diluted in serum-free medium) before being metabolically labeled for a further 4 h with C16:0-azide. Samples were then lysed and processed by copper-catalyzed click chemistry to reveal the extent of S-acylation.
Figure 5 Activity of TTZ-1 and TTZ-2 against SNAP25 S-acylation by human zDHHC2 expressed in mammalian cells. HEK293T cells were transfected with a plasmid encoding GFP-SNAP25b together with a plasmid encoding human zDHHC2 (+zD2) or a control plasmid pEF-BOS-HA. Cells were preincubated for 4 h with increasing concentrations of TTZ-1 (A) or TTZ-2 (B) or DMSO (as a control) before metabolic labeling with 100 μM C16:0-azide for another 4 h. Cells were lysed, and proteins having incorporated C16:0-azide were labeled by click chemistry with an alkyne-IR800 dye. Protein samples were then resolved by SDS-PAGE and transferred to nitrocellulose membranes that were probed with an anti-GFP antibody (IR680). Representative images are shown for cells treated with TTZ-1 (A) or TTZ-2 (B). Top panels, click chemistry signal (top panel, Click [IR800]) and GFP immunoblot (middle panel, GFP [IR680]). Positions of the molecular mass markers (in kilodalton) are indicated on the right side of the membranes. Bottom panels A and B, data from three independent experiments performed in duplicate were quantified, and the inhibition of GFP-SNAP25b S-acylation was determined as stated in the Experimental procedures section. Graphs show mean ± SEM of inhibition of normalized S-acylation (click signal/GFP signal) in the presence of each compound. Data were analyzed and fit to a nonlinear curve using the log(inhibitor) versus normalized response (variable slope) equation. DMSO, dimethyl sulfoxide; HA, hemagglutinin; HEK293T, human embryonic kidney 293T cell line; TTZ, tetrazole; zDHHC, zinc finger DHHC domain–containing protein.
HEK293T cells were plated on poly-D-lysine–coated 24-well plates (catalog no.: 356413; Corning BioCoat, VWR) and transfected with 2.4 μg of pEF-zDHHC2 plasmid (or the control empty plasmid pEF-BOS-HA) for the measurement of zDHHC2 autoacylation and 4.8 μl of Lipofectamine 2000 (Invitrogen). For substrate acylation, cells were transfected with 1.6 μg of pEF-zDHHC plasmid (or the control empty plasmid pEF-BOS-HA) together with 0.8 μg of EGFP-SNAP25b plasmid and 4.8 μl of Lipofectamine 2000. Twenty-four hours post-transfection, cells were washed once with PBS and preincubated with ONO or UoS compounds diluted in 250 μl of serum-free DMEM for 4 h. S-acylation labeling was then started by the addition of 50 μl of 600 μM of either unmodified palmitic acid C16:0 or C16:0-azide (final concentration of 100 μM) diluted in serum-free DMEM supplemented with 1 mg/ml fatty acid–free BSA (Sigma; catalog no.: A7030). Cells were labeled for 4 h, washed once with PBS, then lysed on ice in 100 μl of 50 mM Tris (pH 8) containing 0.5% SDS and protease inhibitors (Sigma; catalog no.: P8340). Conjugation of IR800 alkyne dye or mPEG5K alkyne to C16:0-azide was carried out for 1 h at room temperature with end-over-end rotation by adding an equal volume of freshly prepared click chemistry reaction mixture containing the following: 5 μM IRDye 800CW alkyne (catalog no.: 929-60002; Li-COR) or 200 μM of mPEG5K-alkyne (catalog no.: JKA3177; Sigma), 4 mM CuSO4 (catalog no.: 451657; Sigma), 400 μM Tris[(1-benzyl-1H-1,2,3-triazol-4-yl)methyl]amine (catalog no.: 678937; Sigma), and 8 mM ascorbic acid (catalog no.: A15613; Alpha Aesar) in distilled water. About 67 μl of 4 × SDS-PAGE sample buffer containing 100 mM DTT was then added to the 200 μl sample. […]
A general note: A western blot detects proteins with antibodies after separation by electrophoresis.

Regarding `CCCCCCCOc1ccc(C(=O)Nc2cccc3c2OC(c2nnn[nH]2)CN3)cc1` (centres unmarked) [TTZ-1, N-(2-(1H-Tetrazol-5-yl)-3,4-dihydro-2H-benzo[b][1,4]oxazin-8-yl)-4-(heptyloxy)benzamide], the inhibition (usually the change of the read-out against control, counted positive when it falls) at 25 µM stood at 113 ± 5%; the “zDHHC2-mediated substrate (SNAP25) S-acylation Hill slope” value was 7.6; the IC50 – broadly, the concentration at which inhibition is half-maximal – amounted to 14.4 µM; the “GFP-SNAP25 S-acylation in cell-based assays, newly synthesized compounds” value was “results comparable to the original hit compounds”.
As to `O=C(Nc1cccc2c1OC(c1nnn[nH]1)CN2)c1ccc(OCCCCc2ccccc2)cc1` (centres unmarked) [TTZ-2, N-(2-(1H-Tetrazol-5-yl)-3,4-dihydro-2H-benzo[b][1,4]oxazin-8-yl)-4-(4-phenylbutoxy)benzamide], the inhibition at 25 µM is 84 ± 6%; the “zDHHC2-mediated substrate (SNAP25) S-acylation Hill slope” value is given as 4.6; the IC50 is 18.8 µM; the “GFP-SNAP25 S-acylation in cell-based assays, newly synthesized compounds” value is “results comparable to the original hit compounds”.
